The numbers were not newly measured in patent publication US20250332117A1, “Thin Films with Peroxides and Uses Thereof” (Silverpeutics, Inc., priority 2024, published 2025), which cites them from elsewhere.

Molecules are shown by their SMILES.

In one series the test system is bacteria. The settings on record: general statement, no source given.
A further series concerns cells. The settings on record: general statement, no source given.

In the case of `OO` [peroxide, Hydrogen peroxide], in the series on bacteria, the “peroxide concentration at which partial bacteriostatic effects are observed” value was 25 to 50 µM. For the same compound, the “peroxide concentration at which cell killing is observed” value in the series with cells is given as “above 500 μM”.
